Experimental data reported in PubChem BioAssay (NCI).
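48-hour exposure; five concentrations; linearly interpolated endpoints. Definition used: TGI = concentration required for complete inhibition of growth.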

What was measured:
Assay in all cases: NCI-60 cell line screen, 48 h
CAKI-1 renal = test system: CAKI-1 renal
NCI-H226 lung = test system: NCI-H226 lung
HS 578T breast = test system: HS 578T breast
HOP-62 NSCLC = test system: HOP-62 NSCLC
NCI/ADR-RES ovarian = test system: NCI/ADR-RES ovarian
HL-60(TB) leukemia = test system: HL-60(TB) leukemia
SK-OV-3 ovarian = test system: SK-OV-3 ovarian
RXF 393 renal = test system: RXF 393 renal
HCT-15 colon = test system: HCT-15 colon
TK-10 renal = test system: TK-10 renal

SMILES | TGI (CAKI-1 renal) [µM] | TGI (NCI-H226 lung) [µM] | TGI (HS 578T breast) [µM] | TGI (HOP-62 NSCLC) [µM] | TGI (NCI/ADR-RES ovarian) [µM] | TGI (HL-60(TB) leukemia) [µM] | TGI (SK-OV-3 ovarian) [µM] | TGI (RXF 393 renal) [µM] | TGI (HCT-15 colon) [µM] | TGI (TK-10 renal) [µM]
C/C(CC(O)(C(F)(F)F)C(F)(F)F)=N\N | > 10 | > 10 | > 10 | > 10 | > 10 | > 10 | > 10 | > 10 | > 10 | > 10
COCCc1c(C)c(C#N)c2n(C)c3ccccc3n2c1=O | > 10 | > 10 | > 10 | > 10 | > 10 | > 10 | > 10 | > 10 | > 10 | > 10
COc1cc(/C=C2\C(=O)N(c3cccc(Cl)c3)C(c3ccccc3)S2(=O)=O)cc(OC)c1OC (stereo not given) | > 100 | > 100 | > 100 | > 100 | > 100 | > 100 | > 100 | > 100 | > 100 | > 100
CCN(CC)CCn1ncc2ccc3c(c(=O)c4cccnc4n3CCN(CC)CC)c21 | 9.71 | 5.44 | > 6 | 3.38 | 4.86 | 2.83 | > 9.46 | 2.8 | 6 | > 10
COc1cc2c(cc1C)NC(=O)/C2=C/c1c(Cl)[nH]c2cc(C)c(OC)cc12 | 21.2 | 50.6 | 46 | 23.2 | 13.5 | 3.39 | 5.56 | 22.1 | 17.5 | 18
O=C(CSc1nc2ccc(I)cc2c(=O)n1Cc1ccccc1)N/N=C/c1ccccc1 | 23 | 95.9 | 9.09 | 20.9 | 92 | > 100 | 31.6 | 26.7 | > 100 | 36.1
C/C(Cl)=N\OC(=O)Nc1ccc([N+](=O)[O-])cc1 | 9.79 | > 100 | 72.5 | > 100 | 29.3 | 4.09 | > 32.6 | 30.4 | 34.2 | 27.8
N#CS/C(C(Cl)=C(Cl)Cl)=C(/Cl)[N+](=O)[O-] | 2.42 | 19.9 | > 61.4 | 33.4 | > 28.1 | 0.512 | 31.2 | 2.98 | 6.59 | 4.66
O=C(N/N=C(/COc1cccc(Cl)c1)N=Cc1ccncc1)c1ccncc1 | > 100 | > 100 | > 100 | > 100 | > 100 | > 100 | > 100 | > 100 | > 100 | > 100
COc1ccc2c(c1)/C(=C(\C(Cl)=C(\Cl)N1CCCCC1)[N+](=O)[O-])N2 | > 100 | > 100 | > 100 | > 100 | > 100 | > 100 | > 100 | > 100 | > 100 | > 100
C=CCN1CCC(OC(=O)C(O)(/C=C\CC)C2CCCC2)CC1 (stereo not given) | > 100 | > 100 | > 100 | > 100 | > 100 | > 100 | > 100 | > 100 | > 100 | > 100
CCCCc1ccc(Nc2nc3c(ncn3C3OC(COC(C)=O)C(OC(C)=O)C3OC(C)=O)c(=O)[nH]2)cc1 (stereo not given) | > 100 | 60.6 | 56 | 35.5 | > 100 | 55.6 | 71.1 | 41.7 | > 100 | > 100
CC(C)(C)OC(=O)N1C(C2=COc3ccccc3O2)=COc2ccccc21 | > 100 | 88.8 | > 100 | 45.3 | 82.3 | 45.5 | > 100 | 22.5 | > 100 | > 100
CCOC(=O)c1ccc(N=C2SC(=S)N(c3ccc(F)cc3)C2=Nc2ccc(C(=O)OCC)cc2)cc1 | 37.8 | 43.1 | 91.7 | > 89 | 44.8 | 22.3 | > 100 | 23.3 | 21.4 | 36.6
C=C1CC(OC(C)=O)/C=C(/C)CCC(C(C)(C)O)CC1O (stereo not given) | > 100 | > 100 | > 100 | > 100 | > 100 | > 100 | > 100 | > 100 | > 100 | > 100
Oc1c(C(O)(c2ccccc2)c2ccc3ccccc3c2O)ccc2ccccc12 | 33.8 | 36.5 | 27.8 | 35.6 | 43.1 | 13.9 | 38.3 | 25.3 | 25.9 | 26.8
COc1ccc2c(c1)/C(=C(\C(Cl)=C(Cl)Cl)[N+](=O)[O-])N2 | > 100 | 85.7 | > 100 | > 100 | > 100 | > 100 | > 100 | > 100 | > 100 | > 100
NS(=O)(=O)c1nnc(NC(=O)CCC(=O)O)s1 | > 100 | > 100 | > 100 | > 100 | > 100 | > 100 | > 100 | > 100 | > 100 | > 100
COC(=O)N1CC[C@@H]2CCC=C(c3cccc4c3OCO4)[C@@H]21 | > 100 | > 100 | > 100 | > 100 | > 100 | > 100 | > 100 | > 100 | > 100 | > 100
O=c1oc2ncccc2n1Cc1ccc([N+](=O)[O-])cc1 | > 100 | > 100 | > 100 | > 100 | > 100 | > 100 | > 100 | > 100 | > 100 | > 100
CCN(CC)CCN1c2ccccc2Sc2ccc3ccccc3c21 | 22.7 | 19.1 | 32.6 | 29 | 25.6 | 15.1 | 29.4 | 9.5 | 22.1 | 23.9
CN1CN(c2ccccc2)C2(CCNCC2)C1=O | > 100 | > 100 | > 100 | > 100 | > 100 | > 100 | > 100 | > 100 | > 100 | > 100
COc1ccc(C2CCc3nc4nc(N)nc(N)c4cc3C2)cc1 (stereo not given) | > 100 | > 100 | > 100 | 33.9 | > 100 | > 100 | 25.3 | 37.2 | > 100 | 24.9
Cc1c2c(c(C)c3c[n+](C)ccc13)Oc1ccccc1O2 | > 100 | > 43.8 | 12.9 | 33.4 | > 100 | 39.4 | > 84.5 | > 100 | > 100 | > 100
